Measurements taken from US5219879A, “Heterocyclic steroid compounds” (Du Pont Merck Pharmaceutical Company, priority 1991, dated 1993).

system: 3-Hydroxy-3-Methylglutaryl Coenzyme A Reductase (HMGR); assay: 3-Hydroxy-3-Methylglutaryl Coenzyme A Reductase (HMGR) Suppression Assay; type: cell-based, Chinese Hamster (CHO cells); details: CHO cells, 6 hr. at 37°; read-out: IC50 (amount of compound required to suppress HMGR activity by 50% relative to controls)

| SMILES | IC50 [nM] |
| --- | --- |
| CC(C)CCC[C@@H](C)[C@H]1CCS[C@H]2C3=C(CC[C@]12C)[C@@]1(C)CC[C@H](O)C(C)(C)[C@@H]1CC3 [Example 1509, 4,4-Dimethyl-15-thia-D-homo-5a-cholest-8-en-3b-ol] | 5000 |
| CC(C)CCC[C@@H](C)[C@H]1CCO[C@@]2(C=O)C3=C(CC[C@]12C)[C@@]1(C)CC[C@H](O)C(C)(C)[C@@H]1CC3 [Example 677, 14a-Oxa-32-oxo-D-homo-dihydrolanosterol] | 2500 |
| CC(C)CCC[C@@H](C)[C@H]1CO[C@@]2([C@H](O)CO)C3=C(CC[C@]12C)[C@@]1(C)CC[C@H](O)C[C@@H]1CC3 [Example 16] | 2500 |
| CC(C)CCC[C@@H](C)[C@H]1CO[C@@]2(CO)C3=C(CC[C@]12C)[C@@]1(C)CC[C@H](O)C(C)(C)[C@@H]1CC3 [Example 8, 15-Oxa-lanost-8-ene-3b,32-diol] | 2500 |
| CC(C)CCC[C@@H](C)[C@H]1CO[C@@]2(CO)C3=C(CC[C@]12C)[C@@]1(C)CC[C@H](O)C[C@@H]1CC3 [Example 19] | 2080 |
| CC(C)CCC[C@@H](C)[C@H]1CO[C@@]2(C)C3=C(CC[C@]12C)[C@@]1(C)CC[C@H](O)C[C@@H]1CC3 [Example 13, 14a-Methyl-15-oxa-5a-cholest-8-en-3b-ol] | 2500 |
| CC(=O)O[C@H]1CC[C@]2(C)C3=C(CC[C@H]2C1(C)C)[C@]1(C=O)OC[C@H]([C@H](C)CCCC(C)C)[C@@]1(C)CC3 [Example 6, 3b-Acetoxy-15-oxa-32-oxolanost-8-ene] | 75 |

Further lines, results first:

| IC50 [nM] | SMILES |
| --- | --- |
| 1950 | CC(C)CCC[C@@H](C)[C@H]1CO[C@@]2([C@@H](O)CO)C3=C(CC[C@]12C)[C@@]1(C)CC[C@H](O)C[C@@H]1CC3 [Example 17] |
| 80 | CC(C)CCC[C@@H](C)[C@H]1CO[C@@]2(C=O)C3=C(CC[C@]12C)[C@@]1(C)CCC(=O)C(C)(C)[C@@H]1CC3 [Example 386] |
| 200 | CC(C)CCC[C@@H](C)[C@H]1CO[C@@]2(C=NO)C3=C(CC[C@]12C)[C@@]1(C)CC[C@H](O)C(C)(C)[C@@H]1CC3 [Example 10, 3b-Hydroxy-15-oxa-lanost-8-en-32-aldoxime] |
| 1250 | CC(C)CCC[C@@H](C)[C@H]1CCS[C@@]2(C)C3=C(CC[C@]12C)[C@@]1(C)CC[C@H](O)C(C)(C)[C@@H]1CC3 [Example 1508] |
| 1460 | CC(C)CCC[C@@H](C)[C@H]1CCO[C@H]2C3=C(CC[C@]12C)[C@@]1(C)CC[C@H](O)C(C)(C)[C@@H]1CC3 [Example 673, 4,4-dimethyl-14a-Oxa-D-homo-5a-cholest-8-en-3b-ol] |
| 170 | C=C[C@@]12OC[C@H]([C@H](C)CCCC(C)C)[C@@]1(C)CCC1=C2CC[C@H]2C(C)(C)[C@@H](O)CC[C@]12C [Example 3, 4,4-Dimethyl-15-oxa-14a-vinyl-5a-cholest-8-en-3b-ol] |
| 60 | CC(C)CCC[C@@H](C)[C@H]1CS[C@@]2(C)C3=C(CC[C@]12C)[C@@]1(C)CC[C@H](O)C(C)(C)[C@@H]1CC3 [Example 857] |
| 40 | CC(C)CCC[C@@H](C)[C@H]1CO[C@@]2(C=O)C3=C(CC[C@]12C)[C@@]1(C)CC[C@H](O)C(C)(C)[C@@H]1CC3 [Example 7, 15-Oxa 32-oxodihydrolanosterol] |
| 300 | CC(C)CCC[C@@H](C)[C@H]1CO[C@H]2C3=C(CC[C@]12C)[C@@]1(C)CC[C@H](O)C(C)(C)[C@@H]1CC3 [Example 2, 4,4-Dimethyl-15-oxa-5a-cholest-8-en-3b-ol] |
| 60 | C=C[C@@]12SC[C@H]([C@H](C)CCCC(C)C)[C@@]1(C)CCC1=C2CC[C@H]2C(C)(C)[C@@H](O)CC[C@]12C [Example 859, 4,4-Dimethyl-15-thia-14a-vinyl-5a-cholest-8-en-3b-ol] |
| 300 | CC(C)CCC[C@@H](C)[C@H]1CO[C@@]2(C=O)C3=C(CC[C@]12C)[C@@]1(C)CC[C@H](O)C[C@@H]1CC3 [Example 18] |
| 550 | CC(C)CCC[C@@H](C)[C@H]1CS[C@H]2C3=C(CC[C@]12C)[C@@]1(C)CC[C@H](O)C(C)(C)[C@@H]1CC3 [Example 858, 4,4-Dimethyl-15-thia-5a-cholest-8-en-3b-ol] |
| 300 | CC(C)CCC[C@@H](C)[C@H]1C[S+]([O-])[C@@]2(C)C3=C(CC[C@]12C)[C@@]1(C)CC[C@H](O)C(C)(C)[C@@H]1CC3 (some centres unmarked) [Example 1303] |

same assay, conditions: CHO cells, tested under these same conditions

| SMILES | effect on measured HMGR activity |
| --- | --- |
| CC(C)=CCC[C@@H](C)[C@H]1CC[C@@]2(C)C3=C(CC[C@]12C)[C@@]1(C)CC[C@H](O)C(C)(C)[C@@H]1CC3 [lanosta-8,24-diene-3b-ol, reference compound] | without effect |
| CC(C)CCC[C@@H](C)[C@H]1CC[C@@]2(C)C3=C(CC[C@]12C)[C@@]1(C)CC[C@H](O)C(C)(C)[C@@H]1CC3 [lanost-8-en-3b-ol, reference compound] | without effect |
| CC(C)CCC[C@@H](C)[C@H]1CC[C@H]2[C@@H]3CC=C4C[C@@H](O)CC[C@]4(C)[C@H]3CC[C@]12C [cholesterol, reference compound] | without effect |

system: cholesterol biosynthesis pathway; assay: Assay of 14C-Acetate Incorporation into the Biosynthesis of Cholesterol (HepG2 cells); type: cell-based; details: Homo sapiens, 22 hours with test compound, then 14C-acetate for additional 2 hours, read-out: IC50, inhibition of the incorporation of 14C-acetate into the cholesterol biosynthesis pathway
Procedure: The HepG2 cells (a human hepatoma cell line) used in this example were obtained from the American Type Culture Collection (ATCC, Rockville, Md.). They were maintained in Dulbecco's Modified Eagles Medium and Ham's F12 Medium (1:1) supplemented with 10% heat inactivated Fetal Bovine serum, […] Herpes, 1 mM sodium pyruvate, 1×Non-essential Amino Acids (Gibco) and 2 mM L-glutamine.
The cells were harvested by washing cultures with 10 ml Hank's Balanced Salt Solution (2×) and incubating with 0.125% Trypsin in Versene (0.02% EDTA) for approximately one minute. After the cells are visibly rounded and loosened from the flask, 9 ml of the above medium is added. The cells are transferred to a […] culture dish and syringed up and down through a 20 gauge needle to break up aggregated clumps of cells. Cell cultures are plated at 0.1×10^6 /ml and 0.075×10^6 /ml in two 24 well plates, respectively, aliquoting 1 ml cells/well. The cells are allowed to attach for 24 hours (48 hours for the lower density plate) before washing 2× with HBSS and refed with 1 ml of the above medium with 1% Cabosil delipidated serum instead of Fetal Bovine Serum. The cells are treated with the test compounds after 24 hours of exposure to the delipidated serum media.
Chemicals are routinely prepared as a 10 mM solution in 100% ethanol or dimethyl sulfoxide (DMSO). All test compounds are added at 50 μM, 25 μM, 10 μM, 1 μM at a final concentration of 0.45% solvent, 0.25% Bovine Serum Albumin (BSA) suspension per well. The solvent BSA is sonicated for 10 seconds to ensure maximum solubilization before addition to the cells. Control wells receive solvent/BSA at the same concentrations as the drug treated cultures. […]
The eluted sterols are dried under nitrogen gas and resuspended in 150 μL ethanol. […] The samples are counted on the dual label ^3 H:^14 C program on the Beckman scintillation counter Model LS 7800.
The incorporation of both radiolabeled precursors into sterols is compared between the treated and non-treated (control) cultures and expressed as "% control" for each precursor. […]

| SMILES | IC50 [nM] |
| --- | --- |
| CC[C@@]12OC[C@H]([C@H](C)CC[C@H](C)C(C)C)[C@@]1(C)CCC1=C2CC[C@H]2C[C@@H](O)CC[C@]12C [Example 30 (Compound 81), 14α-Ethyl-15-oxa-ergost-8-en-3β-ol] | 600 |
| C=C[C@@]12OC[C@H]([C@H](C)/C=C/[C@H](C)C(C)C)[C@@]1(C)CCC1=C2CC[C@H]2C[C@@H](O)CC[C@]12C [Example 29 (Compound 80), (22E)-15-Oxa-14α-vinyl-ergosta-8,22-dien-3β-ol] | > 50000 |
| C=C[C@@]12OC[C@H]([C@H](C)/C=C/[C@H](C)C(C)C)[C@@]1(C)CCC1=C2CC[C@H]2C(C)(C)[C@@H](O)CC[C@]12C [Example 28 (Compound 78), (22E)-4,4-Dimethyl-15-oxa-14α-vinylergosta-8,22-dien-3β-ol] | 50 |
